Laboratory results from patent US20260250318A1, “COMPOSITIONS AND METHODS FOR CROSSING THE BLOOD BRAIN BARRIER” (VOYAGER THERAPEUTICS, INC., priority 2022, published 2026).

Assays:
brain = assay: Matured TTM-001 and TTM-002 variants, NGS enrichment in mouse brain; type: in vivo, mice; conditions: relative to AAV9 control
[1] = tested on: brains, heart, liver, muscle, and DRG of the NHPs; assay: Maturation of TTM-001 and TTM-002 capsids, NGS enrichment in NHP tissues; type: in vivo; conditions: relative to AAV9 control
Outline: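 Variants carry mutations within and flanking the loop IV peptide insert: positions 450–466 were triplet-randomized, while positions 449–466 received low-frequency point mutations. The combined pool went into two NHPs, and each peptide was scored by NGS enrichment ratio against AAV9.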

[2] = NGS fold-enrichment, brain of mice
[3] = NGS fold-enrichment, mouse brain
[4] = NGS fold-enrichment of RNA, NHP brain
[5] = NGS fold-enrichment, DRG of NHPs
[6] = NGS fold-enrichment, NHP liver DNA
[7] = NGS fold-enrichment, NHP liver RNA
[8] = NGS fold-enrichment, NHP muscle
[9] = NGS fold-enrichment, RNA, brain of NHPs
[10] = NGS fold-enrichment, heart of NHPs
[11] = NGS fold-enrichment, liver DNA of NHPs
[12] = NGS fold-enrichment, liver RNA of NHPs
[13] = NGS fold-enrichment, muscle of NHPs
[14] = NGS fold-enrichment of matured AAV capsid variants, NHP brain, RNA

Sequence	Fold Enrichment relative to AAV9, Brain (Mouse) (brain; [2])	Fold Enrichment relative to AAV9, Brain (Mouse) (brain; [3])	Fold Enrichment relative to AAV9, Brain (NHP) [1, 4]	Fold Enrichment relative to AAV9, DRG (NHP) [1, 5]	Fold Enrichment relative to AAV9, DRG (NHP) ([1]; NGS fold-enrichment, NHP DRG)	Fold Enrichment relative to AAV9, Heart (NHP) ([1]; NGS fold-enrichment, NHP heart)	Fold Enrichment relative to AAV9, Liver DNA (NHP) [1, 6]	Fold Enrichment relative to AAV9, Liver RNA (NHP) [1, 7]	Fold Enrichment relative to AAV9, Muscle (NHP) [1, 8]	Fold Enrichment relative to AAV9, Brain (NHP) [1, 9]	Fold Enrichment relative to AAV9, Heart (NHP) [1, 10]	Fold Enrichment relative to AAV9, Liver DNA (NHP) [1, 11]	Fold Enrichment relative to AAV9, Liver RNA (NHP) [1, 12]	Fold Enrichment relative to AAV9, Muscle (NHP) [1, 13]	also measured
KTERLSGSPHSKAQNQQT	102.372 fold	102.372 fold	95.857 fold	0.000 fold	0.000 fold	0.004 fold	0.260 fold	0.126 fold	0.005 fold	95.857 fold	0.004 fold	0.260 fold	0.126 fold	0.005 fold	–
KTERMSGSPHSKAQNQQT	122.812 fold	–	–	0.000 fold	–	–	–	–	–	74.910 fold	0.000 fold	0.151 fold	0.100 fold	0.000 fold	–
KTERNSGSPHSKAQNQQT	87.392 fold	87.392 fold	99.892 fold	0.000 fold	0.000 fold	0.000 fold	0.107 fold	0.000 fold	0.000 fold	99.892 fold	0.000 fold	0.107 fold	0.000 fold	0.000 fold	–
KTERPSGSPHSKAQNQQT	73.894 fold	73.894 fold	75.669 fold	0.000 fold	0.000 fold	0.029 fold	0.156 fold	0.000 fold	0.000 fold	75.669 fold	0.029 fold	0.156 fold	0.000 fold	0.000 fold	–
KTERSSGSPHSKAQNQQT	125.538 fold	–	–	0.000 fold	–	–	–	–	–	74.853 fold	0.071 fold	0.056 fold	1.036 fold	0.000 fold	–
KTERTSGSPHSKAQNQQT	117.374 fold	117.374 fold	112.957 fold	0.000 fold	0.000 fold	0.009 fold	0.207 fold	1.128 fold	0.000 fold	112.957 fold	0.009 fold	0.207 fold	1.128 fold	0.000 fold	–
KTERVSGSPHSKAQNQQT	135.438 fold	135.438 fold	96.943 fold	0.000 fold	0.000 fold	0.000 fold	0.144 fold	0.000 fold	0.000 fold	96.943 fold	0.000 fold	0.144 fold	0.000 fold	0.000 fold	Fold Enrichment relative to AAV9, Brain (Mouse) (brain; mouse brain): 135.438 fold; Fold Enrichment relative to AAV9, Brain (NHP) [1, 14]: 96.943 fold; Fold Enrichment relative to AAV9, DRG (NHP) ([1]; NHP DRG): 0.000 fold; Fold Enrichment relative to AAV9, Heart (NHP) ([1]; NHP heart): 0.000 fold; Fold Enrichment relative to AAV9, Liver DNA (NHP) ([1]; NHP liver, DNA): 0.144 fold; Fold Enrichment relative to AAV9, Liver RNA (NHP) ([1]; NHP liver, RNA): 0.000 fold; Fold Enrichment relative to AAV9, Muscle (NHP) ([1]; NHP muscle): 0.000 fold
KTESAHDSPHKSGQNQQT	–	13.338 fold	80.810 fold	–	0.000 fold	0.039 fold	0.000 fold	0.000 fold	0.000 fold	–	–	–	–	–	–
KTESASGSPHSKAQNQQT	80.500 fold	–	–	0.000 fold	–	–	–	–	–	68.651 fold	0.000 fold	0.084 fold	0.274 fold	0.000 fold	–
KTESGHDSPHKSGQNQQT	–	13.163 fold	86.513 fold	–	0.000 fold	7.414 fold	0.038 fold	0.000 fold	0.000 fold	–	–	–	–	–	–
KTESHSGSPHSKAQNQQT	52.506 fold	–	–	0.000 fold	–	–	–	–	–	61.947 fold	0.000 fold	0.106 fold	1.480 fold	0.000 fold	–
KTESRHDSPHKSGQNQQT	–	6.975 fold	81.766 fold	–	0.000 fold	0.011 fold	0.036 fold	0.052 fold	0.000 fold	–	–	–	–	–	–
KTESTSGSPHSKAQNQQT	95.861 fold	–	–	0.000 fold	–	–	–	–	–	66.649 fold	0.009 fold	0.176 fold	1.688 fold	0.000 fold	–
KTESWSGSPHSKAQNQQT	67.699 fold	–	–	0.000 fold	–	–	–	–	–	69.144 fold	0.000 fold	0.019 fold	0.000 fold	0.000 fold	–
KTETHSGSPHSKAQNQQT	57.287 fold	57.287 fold	77.974 fold	0.000 fold	0.000 fold	0.067 fold	0.512 fold	0.000 fold	0.000 fold	77.974 fold	0.067 fold	0.512 fold	0.000 fold	0.000 fold	–
KTEVGHDSPHKSGQNQQT	–	13.125 fold	112.457 fold	–	0.000 fold	0.011 fold	0.138 fold	0.000 fold	0.000 fold	–	–	–	–	–	–
KTEVTSGSPHSKAQNQQT	–	–	–	–	–	–	–	–	–	–	–	–	–	–	Fold Enrichment relative to AAV9, Brain (Mouse) (brain; mouse brain): 81.482 fold; Fold Enrichment relative to AAV9, Brain (NHP) [1, 14]: 54.663 fold; Fold Enrichment relative to AAV9, DRG (NHP) ([1]; NHP DRG): 0.000 fold; Fold Enrichment relative to AAV9, Heart (NHP) ([1]; NHP heart): 0.000 fold; Fold Enrichment relative to AAV9, Liver DNA (NHP) ([1]; NHP liver, DNA): 0.185 fold; Fold Enrichment relative to AAV9, Liver RNA (NHP) ([1]; NHP liver, RNA): 0.323 fold; Fold Enrichment relative to AAV9, Muscle (NHP) ([1]; NHP muscle): 0.000 fold
